Measurements as given in patent US20260007758A1, “SO[…]-2 RECEPTOR (SST2R) NON-PEPTIDE DRUG CONJUGATES AND USES THEREOF” (Crinetics Pharmaceuticals, Inc., priority 2024, published 2026).

How the values were obtained:
Format in all cases: cell-based
[1] = target: T1, human somatostatin receptor subtype 2 (Homo sapiens, UniProt P30874); experiment: Functional assay for SSTR2 agonists (HTRF cAMP); details: CHO-K1 cells stably expressing human SST2; NKH477-stimulated cAMP; 20 min at 37 C; read-out: hSST2 cAMP Avg EC50
T1 construct: expressed in transfected cells
T1 sequence (P30874 whole entry): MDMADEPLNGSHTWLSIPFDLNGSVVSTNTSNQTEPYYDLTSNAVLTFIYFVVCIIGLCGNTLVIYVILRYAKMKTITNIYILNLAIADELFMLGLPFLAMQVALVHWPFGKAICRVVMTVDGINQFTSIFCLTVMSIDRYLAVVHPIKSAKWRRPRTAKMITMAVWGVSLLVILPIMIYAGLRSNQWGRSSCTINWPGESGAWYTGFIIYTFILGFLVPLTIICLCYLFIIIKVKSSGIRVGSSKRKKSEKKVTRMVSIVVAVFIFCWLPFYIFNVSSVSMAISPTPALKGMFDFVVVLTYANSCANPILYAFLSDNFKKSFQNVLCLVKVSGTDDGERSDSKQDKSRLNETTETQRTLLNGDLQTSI
Summary of the method: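 Agonist activity read as fall in intracellular cAMP: HTRF 665/620 nm ratio regressed to a cAMP standard curve, EC50 fitted. Stable human SSTR2 CHO-K1 cells exposed 20 min at 37 °C to compound, final concentrations typically 0-10,000 nM.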

[2] = target: T2, SST2 (Homo sapiens, UniProt P30874); experiment: PathHunter CHO-K1 SST2 Internalization Assay; details: PathHunter CHO-K1 SST2 cells; 90 min at 37 C; luminescence; read-out: Internalization EC50
T2 construct: host or cells: PathHunter CHO-K1 SST2 cells
T2 sequence (P30874 whole entry): as above
Summary of the method: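 Four-parameter nonlinear fits of background-corrected luminescence (duplicate means) gave IC50s. NDCs were serially diluted 1:3 over 11 points from a 10 uM final top concentration and incubated 90 min at 37 C with human SST2 CHO-K1 cells plated 48 h earlier at 2500/well. Beta-Glo read-out developed 60 min at RT.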

[3] = system: NCI-H524 human small cell lung cancer cells; experiment: H524 assay: inhibition of cell proliferation (CellTiter Glo); details: 2 h treatment, washout, additional 70 h incubation
Summary of the method: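 Proliferation was measured by CellTiter Glo 70 h after a washout that followed a 2 h pulse of NDC. Doses were an 11-point, two-fold dilution series from 1 uM. IC50 was fitted with a four-parameter model to luminescence-based % inhibition relative to control cells.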

SMILES	EC50 [1] [nM]	EC50 [2] [nM]	EC50 [3] [nM]
CC[C@H](C)[C@@H]([C@@H](CC(=O)N1CCC[C@H]1[C@H](OC)[C@@H](C)C(=O)N[C@H](C)[C@@H](O)c1ccccc1)OC)N(C)C(=O)[C@@H](NC(=O)[C@H](C(C)C)N(C)C(=O)OCc1ccc(NC(=O)[C@H](CCCNC(N)=O)NC(=O)[C@@H](NC(=O)[C@H](CCCO)NC(=O)CCOCCC(=O)NCCNc2ncc(-c3cc(C)cc(F)c3)c(N3CCC(N)CC3)c2-c2nc3cc(Cl)ccc3[nH]2)C(C)C)c(O[C@@H]2O[C@H](C(=O)NCC(=O)O)[C@@H](O)[C@H](O)[C@H]2O)c1)C(C)C [Compound 219]	0.099	2.7	7.5
CC[C@H](C)[C@@H]([C@@H](CC(=O)N1CCC[C@H]1[C@H](OC)[C@@H](C)C(=O)N[C@H](C)[C@@H](O)c1ccccc1)OC)N(C)C(=O)[C@@H](NC(=O)[C@H](C(C)C)N(C)C(=O)OCc1ccc(NC(=O)[C@H](CCCNC(N)=O)NC(=O)[C@@H](NS(=O)(=O)C[C@H](C)NC(=O)CCOCCC(=O)NCCNc2ncc(-c3cc(C)cc(F)c3)c(N3CCC(N)CC3)c2-c2nc3ccc(Cl)cc3[nH]2)C(C)C)c(O[C@@H]2O[C@H](C(=O)N(C)CC(=O)O)[C@@H](O)[C@H](O)[C@H]2O)c1)C(C)C [Compound 220]	0.077	3.1	7.6
CC[C@H](C)[C@@H]([C@@H](CC(=O)N1CCC[C@H]1[C@H](OC)[C@@H](C)C(=O)N[C@H](C)[C@@H](O)c1ccccc1)OC)N(C)C(=O)[C@@H](NC(=O)[C@H](C(C)C)N(C)C(=O)OCc1ccc(NC(=O)[C@H](C)NC(=O)[C@@H](NS(=O)(=O)C[C@H](C)NC(=O)CCOCCC(=O)NCCNc2ncc(-c3cc(C)cc(F)c3)c(N3CCC(N)CC3)c2-c2nc3ccc(Cl)cc3[nH]2)C(C)C)c(O[C@@H]2O[C@H](C(=O)N(C)CC(=O)O)[C@@H](O)[C@H](O)[C@H]2O)c1)C(C)C [Compound 221]	0.15	8.8	27
CC[C@H](C)[C@@H]([C@@H](CC(=O)N1CCC[C@H]1[C@H](OC)[C@@H](C)C(=O)N[C@H](C)[C@@H](O)c1ccccc1)OC)N(C)C(=O)[C@@H](NC(=O)[C@H](C(C)C)N(C)C(=O)OCc1ccc(NC(=O)[C@H](CCCNC(N)=O)NC(=O)[C@@H](NC(=O)CCOCCC(=O)NCCNc2ncc(-c3cc(C)cc(F)c3)c(N3CCC(N)CC3)c2-c2nc3ccc(Cl)cc3[nH]2)C(C)C)c(O[C@@H]2O[C@H](C(=O)N3CCNCC3)[C@@H](O)[C@H](O)[C@H]2O)c1)C(C)C [Compound 222]	0.11	4.3	1.9
CC[C@H](C)[C@@H]([C@@H](CC(=O)N1CCC[C@H]1[C@H](OC)[C@@H](C)C(=O)N[C@H](C)[C@@H](O)c1ccccc1)OC)N(C)C(=O)[C@@H](NC(=O)[C@H](C(C)C)N(C)C(=O)OCc1ccc(NC(=O)[C@H](CCCNC(N)=O)NC(=O)[C@@H](NC(=O)CCOCCC(=O)NCCNc2ncc(-c3cc(C)cc(F)c3)c(N3CCC(N)CC3)c2-c2nc3ccc(Cl)cc3[nH]2)C(C)C)c(O[C@@H]2O[C@H](C(=O)N3CCOCC3)[C@@H](O)[C@H](O)[C@H]2O)c1)C(C)C [Compound 223]	0.054	2.8	9.2
CC[C@H](C)[C@@H]([C@@H](CC(=O)N1CCC[C@H]1[C@H](OC)[C@@H](C)C(=O)N[C@H](C)[C@@H](O)c1ccccc1)OC)N(C)C(=O)[C@@H](NC(=O)[C@H](C(C)C)N(C)C(=O)OCc1ccc(NC(=O)[C@H](CCCNC(N)=O)NC(=O)[C@@H](NC(=O)CCOCCC(=O)NCCNc2ncc(-c3cc(C)cc(F)c3)c(N3CCC(N)CC3)c2-c2nc3ccc(Cl)cc3[nH]2)C(C)C)c(O[C@@H]2O[C@H](C(=O)NCCNC(=O)CCC(=O)NS(=O)(=O)c3ccc4ccccc4c3)[C@@H](O)[C@H](O)[C@H]2O)c1)C(C)C [Compound 224]	0.068	3.2	27
CC[C@H](C)[C@@H]([C@@H](CC(=O)N1CCC[C@H]1[C@H](OC)[C@@H](C)C(=O)N[C@H](C)[C@@H](O)c1ccccc1)OC)N(C)C(=O)[C@@H](NC(=O)[C@H](C(C)C)N(C)C(=O)OCc1ccc(NC(=O)[C@H](CCCNC(N)=O)NC(=O)[C@@H](NC(=O)CCOCCC(=O)NCCNc2ncc(-c3cc(C)cc(F)c3)c(N3CCC(N)CC3)c2-c2nc3ccc(Cl)cc3[nH]2)C(C)C)c(O[C@@H]2O[C@H](C(=O)NCCCCCNC(=O)CCCCc3ccc(I)cc3)[C@@H](O)[C@H](O)[C@H]2O)c1)C(C)C [Compound 225]	0.26	1.9	18
CC[C@H](C)[C@@H]([C@@H](CC(=O)N1CCC[C@H]1[C@H](OC)[C@@H](C)C(=O)N[C@H](C)[C@@H](O)c1ccccc1)OC)N(C)C(=O)[C@@H](NC(=O)C(C(C)C)N(C)C(=O)OCc1ccc(NC(=O)[C@H](CCCNC(N)=O)NC(=O)[C@@H](NC(=O)CCOCCC(=O)NCCNc2ncc(-c3cc(C)cc(F)c3)c(N3CCC(N)CC3)c2-c2nc3ccc(Cl)cc3[nH]2)C(C)C)c(O[C@@H]2O[C@H](C(=O)N3CCN(C)CC3)[C@@H](O)[C@H](O)[C@H]2O)c1)C(C)C (stereo partly drawn) [Compound 226]	0.28	9.3	4.3
CC[C@H](C)[C@@H]([C@@H](CC(=O)N1CCC[C@H]1[C@H](OC)[C@@H](C)C(=O)N[C@H](C)[C@@H](O)c1ccccc1)OC)N(C)C(=O)[C@@H](NC(=O)C(C(C)C)N(C)C(=O)OCc1ccc(NC(=O)[C@H](CCCNC(N)=O)NC(=O)[C@@H](NC(=O)CCOCCC(=O)NCCNc2ncc(-c3cc(C)cc(F)c3)c(N3CCC(N)CC3)c2-c2nc3ccc(Cl)cc3[nH]2)C(C)C)c(O[C@@H]2O[C@H](C(=O)N3CCN(CC(=O)O)CC3)[C@@H](O)[C@H](O)[C@H]2O)c1)C(C)C (stereo partly drawn) [Compound 227]	0.078	3.1	11
CC[C@H](C)[C@@H]([C@@H](CC(=O)N1CCC[C@H]1[C@H](OC)[C@@H](C)C(=O)N[C@H](C)[C@@H](O)c1ccccc1)OC)N(C)C(=O)[C@@H](NC(=O)C(C(C)C)N(C)C(=O)OCc1ccc(NC(=O)[C@H](CCCNC(N)=O)NC(=O)[C@@H](NC(=O)CCOCCC(=O)NCCNc2ncc(-c3cc(C)cc(F)c3)c(N3CCC(N)CC3)c2-c2nc3ccc(Cl)cc3[nH]2)C(C)C)c(O[C@@H]2O[C@H](C(=O)N3CCCCC3)[C@@H](O)[C@H](O)[C@H]2O)c1)C(C)C (stereo partly drawn) [Compound 228]	0.26	10	36
CC[C@H](C)[C@@H]([C@@H](CC(=O)N1CCC[C@H]1[C@H](OC)[C@@H](C)C(=O)N[C@H](C)[C@@H](O)c1ccccc1)OC)N(C)C(=O)[C@@H](NC(=O)C(C(C)C)N(C)C(=O)OCc1ccc(NC(=O)[C@H](CCCNC(N)=O)NC(=O)[C@@H](NC(=O)CCOCCC(=O)NCCNc2ncc(-c3cc(C)cc(F)c3)c(N3CCC(N)CC3)c2-c2nc3ccc(Cl)cc3[nH]2)C(C)C)c(O[C@@H]2O[C@H](C(=O)N3CCN(CCO)CC3)[C@@H](O)[C@H](O)[C@H]2O)c1)C(C)C (stereo partly drawn) [Compound 229]	0.1	4.8	4
CC[C@H](C)[C@@H]([C@@H](CC(=O)N1CCC[C@H]1[C@H](OC)[C@@H](C)C(=O)N[C@H](C)[C@@H](O)c1ccccc1)OC)N(C)C(=O)[C@@H](NC(=O)[C@H](C(C)C)N(C)C(=O)OCc1ccc(NC(=O)[C@H](CCCNC(N)=O)NC(=O)[C@@H](NC(=O)CCOCCC(=O)NCCNc2ncc(-c3cc(C)cc(F)c3)c(N3CCC(N)CC3)c2-c2nc3ccc(Cl)cc3[nH]2)C(C)C)c(O[C@@H]2O[C@H](C(=O)NCCOCCC(=O)O)[C@@H](O)[C@H](O)[C@H]2O)c1)C(C)C [Compound 230]	0.095	4.2	14
